# Results: patent publication US20130012466A1 (priority 2006, published 2013)
# “Also recorded” adds a separate entry of the source. Like-named read-outs stand apart in the source and are kept apart here.
# What was measured:
# tubulin = test: In vitro tubulin polymerization assay (fluorescence-based); type: biochemical; design: key to tubulin polymeriz.: ‘D’ designates destabilizer; ‘S’ designates stabilizer; conditions: for effect on tubulin polymerization / microtubules: tested in duplicate on at least two days
# Protocol: In vitro tubulin polymerization assays were performed using a fluorescence-based assay (Cytoskeleton, Inc., Denver, Colo.). […] Aliquots (5 μL) of each compound or control were added to a 96-well black half area plate (Corning Costar, Inc.) pre-warmed to 37° C. Cold tubulin reaction mix (50 μL 1× Buffer—80 mM piperazine-N,N′-bis[2-ethanesulfonic acid]sequisodium salt; 2.0 mM magnesium chloride; 0.5 mM ethylene glycol-bis[β-amino-ethyl ether) N,N,N′,N′-tetra-acetic acid, pH 6.9, 10 μM fluorescent reporter; 20% tubulin glycerol buffer—80 mM piperazine-N,N′-bis[2-ethanesulfonic acid] sequisodium salt; 2.0 mM magnesium chloride; 0.5 mM ethylene glycol-bis(β-amino-ethyl ether) N,N,N′,N′-tetra-acetic acid, 60% v/v glycerol, pH 6.9, 1 mM GTP; and 2 mg mL^−1 tubulin stock) was added to each of the compounds. […] Polymerization curves were generated in Excel after background correction and the effects of test compounds were compared to controls.
# Library members that accelerated the rate of tubulin polymerization were deemed microtubule stabilizers, whereas compounds that decelerated the rate of tubulin polymerization were deemed microtubule de-stabilizers.
# [1] = test system: mouse mammary normal epithelial control cell line; test: Cytotoxicity assay, normal control cell line
# A549 = test: Cytotoxicity assay (cell titer-glo and calcein AM), A549
# Du145 = test: Cytotoxicity assay (cell titer-glo and calcein AM), Du145
# Hep3B = test: Cytotoxicity assay (cell titer-glo and calcein AM), Hep3B
# SF-268 = test: Cytotoxicity assay (cell titer-glo and calcein AM), SF-268
# HCT-116 [2] = test: Cytotoxicity assay (cell titer-glo and calcein AM), HCT-116
# SK-OV-3 = test: Cytotoxicity assay (cell titer-glo and calcein AM), SK-OV-3
# ADR-RES = test: Cytotoxicity assay (cell titer-glo and calcein AM), ADR-RES
# NCI-H460 = test: Cytotoxicity assay (cell titer-glo and calcein AM), NCI-H460
# MCF7 = test: Cytotoxicity assay (cell titer-glo and calcein AM), MCF7
# [3] = test system: nine human cancer cell lines and one normal mouse control cell line; test: Cytotoxicity screen across the whole cell line panel; type: cell-based
# A549 cells [4] = test: Drug combination study with colchicine (Chou-Talalay combination index); conditions: for plus colchicine, mean CI / plus colchicine, median CI: combination index, colchicine held at IC10, A549 cells; for interaction with colchicine: drug combination, A549 cells, Chou-Talalay
# Protocol: (§1) Ten thousand A549 cells per well were plated in triplicate in 96 well black tissue culture treated plates. Cells were incubated for one hour at 37° C. to allow cells to attach.
# (§2) All synergy experiment results were replicated at least three times and the overall effects analyzed by averaging all combination indexes generated if the fraction affected was greater than 0.2.
# A549 cells [5] = test: Drug combination study with paclitaxel (Chou-Talalay combination index); conditions: for synergy (paclitaxel): combination index class, combination with paclitaxel, Chou-Talalay method; for plus paclitaxel, mean CI / plus paclitaxel, median CI: combination index, paclitaxel held at IC10, A549 cells; for interaction with paclitaxel/taxol: drug combination, A549 cells, Chou-Talalay;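 on all read-outs here: combination indexes averaged only over points where fraction affected exceeded 0.2, with each synergy experiment repeated at least three times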
# Protocol: as §1, §2
# HCT-116 [6] = test system: HCT-116
# [7] = read-out: Cytotoxicity IC50, NmuMG, CTG, CTG (cell titer-glo) readout, % error in parentheses
# [8] = read-out: Cytotoxicity IC50, NmuMG, calcein, calcein AM readout, % error in parentheses
# [9] = read-out: Cytotoxicity IC50, A549, CTG, A549, CTG (cell titer-glo) readout, % error in parentheses
# [10] = read-out: Cytotoxicity IC50, A549, calcein, A549, calcein AM readout, % error in parentheses
# [11] = read-out: Cytotoxicity IC50, Du145, CTG, Du145, CTG (cell titer-glo) readout, % error in parentheses
# [12] = read-out: Cytotoxicity IC50, Du145, calcein, Du145, calcein AM readout, % error in parentheses
# [13] = read-out: Cytotoxicity IC50, Hep 3B, CTG, Hep 3B, CTG (cell titer-glo) readout, % error in parentheses
# [14] = read-out: Cytotoxicity IC50, Hep 3B, calcein, Hep 3B, calcein AM readout, % error in parentheses
# [15] = read-out: Cytotoxicity IC50, SF-268, CTG, SF-268, CTG (cell titer-glo) readout, % error in parentheses
# [16] = read-out: Cytotoxicity IC50, SF-268, calcein, SF-268, calcein AM readout, % error in parentheses
# [17] = read-out: Cytotoxicity IC50, SK-OV-3, CTG, SK-OV-3, CTG (cell titer-glo) readout, % error in parentheses
# [18] = read-out: Cytotoxicity IC50, SK-OV-3, calcein, SK-OV-3, calcein AM readout, % error in parentheses
# [19] = read-out: Cytotoxicity IC50, NCI/ADR RES, CTG, NCI/ADR RES, CTG (cell titer-glo) readout, % error in parentheses
# [20] = read-out: Cytotoxicity IC50, NCI/ADR RES, calcein, NCI/ADR RES, calcein AM readout, % error in parentheses
# [21] = read-out: Cytotoxicity IC50, NCI-H460, CTG, NCI-H460, CTG (cell titer-glo) readout, % error in parentheses
# [22] = read-out: Cytotoxicity IC50, NCI-H460, calcein, NCI-H460, calcein AM readout, % error in parentheses
# [23] = read-out: Cytotoxicity IC50, MCF7, CTG, CTG (cell titer-glo) readout, % error in parentheses
# [24] = read-out: Cytotoxicity IC50, MCF7, calcein, calcein AM readout, % error in parentheses
compound,measurement,setting,value
"COc1cc2c(c(OC)c1OC)-c1ccc(OC)c(=O)cc1C(NC(=O)CN(OC)C1CC(O)C(O)C(C)O1)CC2 [Col65, D-Digitoxoside]",tubulin polymeriz.,tubulin,no effect
same,effect on tubulin polymerization / microtubules,tubulin,no apparent effect
same,IC50,[1]; [7],7.75 µM
same,IC50,[1]; [8],3.32 µM
same,IC50,A549; [9],1490 nM
same,IC50,A549; [10],2300 nM
same,IC50,Du145; [11],850 nM
same,IC50,Du145; [12],939 nM
same,IC50,Hep3B; [13],1700 nM
same,IC50,Hep3B; [14],1880 nM
same,IC50,SF-268; [15],800 nM
same,IC50,SF-268; [16],665 nM
same,IC50,"HCT-116 [2]; read-out: Cytotoxicity IC50, HCT-116, CTG, HCT-116, CTG (cell titer-glo) readout, % error in parentheses",918 nM
same,IC50,"HCT-116 [2]; read-out: Cytotoxicity IC50, HCT-116, calcein, HCT-116, calcein AM readout, % error in parentheses",897 nM
same,IC50,SK-OV-3; [17],634 nM
same,IC50,SK-OV-3; [18],1030 nM
same,IC50,ADR-RES; [19],893 nM
same,IC50,ADR-RES; [20],694 nM
same,IC50,NCI-H460; [21],862 nM
same,IC50,NCI-H460; [22],744 nM
same,IC50,MCF7; [23],946 nM
same,IC50,MCF7; [24],648 nM
2-deoxy-D-galactoside [Col6],IC50,"[3]; all cell lines other than SK-OV-3, range printed with mixed units nM-μM, read-out: potencies (IC50) in all other cell lines",691 to 1120 nM
same,tubulin polymeriz.,tubulin,D
same,effect on tubulin polymerization / microtubules,tubulin,destabilizing; also recorded: destabilized microtubules
same,IC50,[1]; [7],3.26 µM
same,IC50,[1]; [8],4.17 µM
same,IC50,A549; [9],782 nM
same,IC50,A549; [10],942 nM
same,IC50,Du145; [11],892 nM
same,IC50,Du145; [12],958 nM
same,IC50,Hep3B; [13],817 nM
same,IC50,Hep3B; [14],1120 nM
same,IC50,SF-268; [15],632 nM
same,IC50,SF-268; [16],691 nM
same,IC50,SK-OV-3; [17],388 nM
same,IC50,SK-OV-3; [18],381 nM
same,IC50,SK-OV-3; read-out: IC50 in SK-OV-3 cells,381 nM
same,IC50,ADR-RES; [19],877 nM
same,IC50,ADR-RES; [20],887 nM
same,IC50,NCI-H460; [21],745 nM
same,IC50,NCI-H460; [22],948 nM
same,IC50,MCF7; [23],665 nM
same,IC50,MCF7; [24],2220 nM
same,"plus colchicine, mean CI",A549 cells [4],1.30
same,"plus colchicine, median CI",A549 cells [4],1.19
same,interaction with colchicine,A549 cells [4],antagonism
same,synergy (paclitaxel),A549 cells [5],"+ (slight synergism, Cl 0.85-0.9)"
same,"plus paclitaxel, mean CI",A549 cells [5],0.88
same,"plus paclitaxel, median CI",A549 cells [5],0.52
same,interaction with paclitaxel/taxol,A549 cells [5],synergy
COc1cc2c(c(OC)c1OC)-c1ccc(OC)c(=O)cc1[C@@H](NC(C)=O)CC2 [colchin],IC50,HCT-116 [6],153 nM
same,IC50,Du145; [11],169 nM
same,IC50,SF-268; [15],67 nM
same,IC50,ADR-RES; [19],18 nM
"CC(=O)O[C@H]1C(=O)[C@@]2(C)[C@H]([C@H](OC(=O)c3ccccc3)[C@]3(O)C[C@H](OC(=O)[C@H](O)[C@@H](NC(=O)c4ccccc4)c4ccccc4)C(C)=C1C3(C)C)[C@]1(OC(C)=O)CO[C@@H]1C[C@@H]2O [paclitaxel, reference compound]",tubulin polymeriz.,tubulin,S
same,effect on tubulin polymerization / microtubules,tubulin,stabilizing; also recorded: stabilized the microtubules
same,IC50,"A549; Homo sapiens, A549, read-out: IC50 (A549)",75 nM
same,IC50,"Du145; Homo sapiens, DU-145, read-out: Cytotoxicity IC50, Du145, CTG",432 nM
same,IC50,"Du145; Homo sapiens, DU-145, read-out: Cytotoxicity IC50, Du145, calcein",290 nM
same,IC50,"Du145; Homo sapiens, DU-145, read-out: IC50 (Du145)",290 nM
same,IC50,"Hep3B; Homo sapiens, Hep3B, read-out: Cytotoxicity IC50, Hep 3B, calcein",166 nM
same,IC50,"Hep3B; Homo sapiens, Hep3B, read-out: IC50 (Hep3B)",166 nM
same,IC50,"SF-268; Homo sapiens, SF-268, read-out: Cytotoxicity IC50, SF-268, calcein",315 nM
same,IC50,"SF-268; Homo sapiens, SF-268, read-out: IC50 (SF-268)",315 nM
same,IC50,"HCT-116 [2]; Homo sapiens, HCT-116, read-out: Cytotoxicity IC50, HCT-116, CTG",168 nM
same,IC50,"HCT-116 [2]; Homo sapiens, HCT-116, read-out: Cytotoxicity IC50, HCT-116, calcein",275 nM
same,IC50,"HCT-116 [2]; Homo sapiens, HCT-116, read-out: IC50 (HCT-116)",275 nM
same,IC50,"SK-OV-3; Homo sapiens, SK-OV-3, read-out: Cytotoxicity IC50, SK-OV-3, CTG",42 nM
same,IC50,"SK-OV-3; Homo sapiens, SK-OV-3, read-out: Cytotoxicity IC50, SK-OV-3, calcein",34 nM
same,IC50,"SK-OV-3; Homo sapiens, SK-OV-3, read-out: IC50 (SK-OV-3)",34 nM
same,IC50,"ADR-RES; Homo sapiens, NCI/ADR-RES, read-out: Cytotoxicity IC50, NCI/ADR RES, calcein",43 nM
same,IC50,"ADR-RES; Homo sapiens, read-out: IC50 (ADR-RES)",43 nM
same,IC50,"NCI-H460; Homo sapiens, NCI-H460, read-out: IC50 (NCI-H460)",105 nM
"D-glucorono-6,3-lactonide [Col45]",IC50,"[3]; cell lines other than ADR-Res, SF-268 and HCT-116, read-out: potencies (IC50) in all other cell lines examined",> 900 nM
same,tubulin polymeriz.,tubulin,D
same,effect on tubulin polymerization / microtubules,tubulin,destabilizing; also recorded: destabilized microtubules
same,IC50,[1]; [7],1.46 µM
same,IC50,[1]; [8],> 10 µM
same,IC50,A549; [9],1100 nM
same,IC50,A549; [10],1060 nM
same,IC50,Du145; [11],1140 nM
same,IC50,Du145; [12],939 nM
same,IC50,Hep3B; [13],793 nM
same,IC50,Hep3B; [14],962 nM
same,IC50,SF-268; [15],398 nM
same,IC50,SF-268; [16],462 nM
same,IC50,SK-OV-3; [17],836 nM
same,IC50,SK-OV-3; [18],887 nM
same,IC50,ADR-RES; [19],1140 nM
same,IC50,ADR-RES; [20],403 nM
same,IC50,NCI-H460; [21],775 nM
same,IC50,NCI-H460; [22],1020 nM
same,IC50,MCF7; [23],760 nM
same,IC50,MCF7; [24],679 nM
same,"plus colchicine, mean CI",A549 cells [4],107.40
same,"plus colchicine, median CI",A549 cells [4],102.90
same,interaction with colchicine,A549 cells [4],strong antagonism
same,synergy (paclitaxel),A549 cells [5],"++++ (strong synergism, Cl 0.1-0.3)"
same,"plus paclitaxel, mean CI",A549 cells [5],0.12
same,"plus paclitaxel, median CI",A549 cells [5],0.07
same,interaction with paclitaxel/taxol,A549 cells [5],strong synergism
2-deoxy-L-riboside [Col19],reduction in potency relative to (1),[3]; versus parent colchicine,~10 fold
same,tubulin polymeriz.,tubulin,S
same,effect on tubulin polymerization / microtubules,tubulin,stabilizing; also recorded: stabilized the microtubules
same,IC50,[1]; [7],2.91 µM
same,IC50,[1]; [8],2.85 µM
same,IC50,A549; [9],376 nM
same,IC50,A549; [10],636 nM
same,IC50,Du145; [11],369 nM
same,IC50,Du145; [12],262 nM
same,IC50,Hep3B; [13],376 nM
same,IC50,Hep3B; [14],437 nM
same,IC50,SF-268; [15],284 nM
same,IC50,SF-268; [16],575 nM
same,IC50,SK-OV-3; [17],240 nM
same,IC50,SK-OV-3; [18],538 nM
same,IC50,ADR-RES; [19],359 nM
same,IC50,ADR-RES; [20],315 nM
same,IC50,NCI-H460; [21],415 nM
same,IC50,NCI-H460; [22],191 nM
same,IC50,MCF7; [23],916 nM
same,IC50,MCF7; [24],2820 nM
same,"plus colchicine, mean CI",A549 cells [4],0.54
same,"plus colchicine, median CI",A549 cells [4],0.50
same,interaction with colchicine,A549 cells [4],synergism
same,synergy (paclitaxel),A549 cells [5],"— (moderate antagonism, Cl 1.2-1.45)"
same,"plus paclitaxel, mean CI",A549 cells [5],43.20
same,"plus paclitaxel, median CI",A549 cells [5],13.40
same,interaction with paclitaxel/taxol,A549 cells [5],antagonism
